Experiments:
[1] = molecular target: Dual specificity mitogen-activated protein kinase kinase 3 (Homo sapiens) (UniProt P46734)
[2] = molecular target: Serine/threonine-protein kinase TNNI3K (Homo sapiens) (UniProt Q59H18)
[3] = molecular target: SRSF protein kinase 2 (Homo sapiens) (UniProt P78362)
[4] = test system: ALK tyrosine kinase receptor (Homo sapiens), Q9UM73 [L1196M]
[5] = molecular target: Sigma intracellular receptor 2 (Homo sapiens, UniProt Q5BJF2); experiment: GPCRScan assay: inhibition of Sigma 2; parameters: radioligand conc. used [nm] 5.0, parental cells HEKT
Chain of Sigma intracellular receptor 2 (Q5BJF2 whole entry): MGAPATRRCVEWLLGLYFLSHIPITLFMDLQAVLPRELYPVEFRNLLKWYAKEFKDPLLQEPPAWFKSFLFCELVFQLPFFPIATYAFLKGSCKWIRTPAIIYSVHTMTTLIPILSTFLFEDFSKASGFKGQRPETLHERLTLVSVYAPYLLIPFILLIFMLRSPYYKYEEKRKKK

[6] = molecular target: Muscarinic acetylcholine receptor M3 (Homo sapiens) (UniProt P20309); settings: Compound concentration 10.0 uM
[7] = molecular target: Serine/threonine-protein kinase LATS2 (Homo sapiens) (UniProt Q9NRM7)
[8] = molecular target: Ephrin type-A receptor 7 (Homo sapiens) (UniProt Q15375)
[9] = molecular target: Dual specificity mitogen-activated protein kinase kinase 7 (Homo sapiens) (UniProt O14733)
[10] = molecular target: Proto-oncogene tyrosine-protein kinase Src (Homo sapiens) (UniProt P12931)
[11] = molecular target: Ribosomal protein S6 kinase alpha-3 (Homo sapiens) (UniProt P51812)
[12] = molecular target: Alpha-1B adrenergic receptor (Homo sapiens) (UniProt P35368); settings: Compound concentration 10.0 uM
[13] = molecular target: Myosin light chain kinase 2, skeletal/cardiac muscle (Homo sapiens) (UniProt Q9H1R3)
[14] = molecular target: Mitogen-activated protein kinase 10 (Homo sapiens) (UniProt P53779)
[15] = test system: Tyrosine-protein kinase ABL1 (Homo sapiens), P00519 [F317L]
[16] = molecular target: Tyrosine-protein kinase Yes (Homo sapiens) (UniProt P07947)
Chain of Tyrosine-protein kinase Yes (Homo sapiens) (P07947 2-543 limits assumed): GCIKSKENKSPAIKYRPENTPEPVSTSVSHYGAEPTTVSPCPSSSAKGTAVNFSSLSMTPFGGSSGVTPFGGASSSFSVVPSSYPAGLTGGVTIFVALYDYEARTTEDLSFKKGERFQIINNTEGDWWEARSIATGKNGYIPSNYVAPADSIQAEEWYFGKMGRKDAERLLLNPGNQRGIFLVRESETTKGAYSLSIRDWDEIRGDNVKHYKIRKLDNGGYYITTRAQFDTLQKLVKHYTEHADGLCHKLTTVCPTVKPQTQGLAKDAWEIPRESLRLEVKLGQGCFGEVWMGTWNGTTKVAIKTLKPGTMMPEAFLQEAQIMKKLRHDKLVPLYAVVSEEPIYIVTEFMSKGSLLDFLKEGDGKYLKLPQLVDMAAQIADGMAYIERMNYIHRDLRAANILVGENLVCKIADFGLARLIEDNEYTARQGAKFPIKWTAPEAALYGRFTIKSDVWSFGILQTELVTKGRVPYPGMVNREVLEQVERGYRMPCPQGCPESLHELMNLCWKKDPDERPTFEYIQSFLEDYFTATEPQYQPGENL

[17] = molecular target: Ephrin type-B receptor 4 (Homo sapiens) (UniProt P54760)
[18] = molecular target: Serine/threonine-protein kinase ICK (Homo sapiens) (UniProt Q9UPZ9)
[19] = molecular target: Tyrosine-protein kinase Srms (Homo sapiens) (UniProt Q9H3Y6)
[20] = molecular target: Beta-adrenergic receptor kinase 1 (Homo sapiens) (UniProt P25098)
Chain of Beta-adrenergic receptor kinase 1 (Homo sapiens) (P25098 whole entry): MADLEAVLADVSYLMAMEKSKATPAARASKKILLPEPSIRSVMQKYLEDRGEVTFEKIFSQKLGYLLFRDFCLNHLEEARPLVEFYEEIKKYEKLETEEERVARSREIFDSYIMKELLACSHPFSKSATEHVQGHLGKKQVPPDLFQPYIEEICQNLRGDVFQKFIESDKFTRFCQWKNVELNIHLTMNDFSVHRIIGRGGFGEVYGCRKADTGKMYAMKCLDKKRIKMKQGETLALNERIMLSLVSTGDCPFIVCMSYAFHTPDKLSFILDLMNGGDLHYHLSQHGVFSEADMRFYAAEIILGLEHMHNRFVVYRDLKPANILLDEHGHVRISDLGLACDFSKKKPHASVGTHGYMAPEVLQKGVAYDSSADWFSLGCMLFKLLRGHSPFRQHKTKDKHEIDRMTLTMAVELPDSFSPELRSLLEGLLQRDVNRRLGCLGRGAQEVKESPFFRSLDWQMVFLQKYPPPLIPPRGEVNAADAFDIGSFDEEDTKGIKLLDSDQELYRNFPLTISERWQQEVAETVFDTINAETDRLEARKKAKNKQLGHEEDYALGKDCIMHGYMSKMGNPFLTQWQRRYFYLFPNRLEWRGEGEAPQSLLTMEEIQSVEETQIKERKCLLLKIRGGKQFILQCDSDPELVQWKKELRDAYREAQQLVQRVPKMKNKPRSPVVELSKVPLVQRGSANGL

[21] = molecular target: 5'-AMP-activated protein kinase catalytic subunit alpha-2 (Homo sapiens) (UniProt P54646)
[22] = molecular target: Alpha-1D adrenergic receptor (Homo sapiens) (UniProt P25100); settings: Compound concentration 10.0 uM
[23] = molecular target: Receptor-type tyrosine-protein kinase FLT3 (Homo sapiens) (UniProt P36888)
[24] = molecular target: Muscarinic acetylcholine receptor M4 (Homo sapiens) (UniProt P08173); settings: Compound concentration 10.0 uM
[25] = molecular target: Cyclin-dependent kinase 17 (Homo sapiens) (UniProt Q00537)
[26] = molecular target: Dual specificity tyrosine-phosphorylation-regulated kinase 2 (Homo sapiens) (UniProt Q92630)
[27] = molecular target: Dual specificity mitogen-activated protein kinase kinase 4 (Homo sapiens) (UniProt P45985)
[28] = molecular target: Calcium/calmodulin-dependent protein kinase type II subunit alpha (Homo sapiens) (UniProt Q9UQM7)
[29] = molecular target: Mitogen-activated protein kinase kinase kinase 19 (Homo sapiens) (UniProt Q56UN5)
[30] = molecular target: Serine/threonine-protein kinase 16 (Homo sapiens) (UniProt O75716)
[31] = molecular target: Interferon-induced, double-stranded RNA-activated protein kinase (Homo sapiens) (UniProt P19525)
[32] = molecular target: Ribosomal protein S6 kinase beta-1 (Homo sapiens) (UniProt P23443)
Chain of Ribosomal protein S6 kinase beta-1 (Homo sapiens) (P23443 whole entry, looked up): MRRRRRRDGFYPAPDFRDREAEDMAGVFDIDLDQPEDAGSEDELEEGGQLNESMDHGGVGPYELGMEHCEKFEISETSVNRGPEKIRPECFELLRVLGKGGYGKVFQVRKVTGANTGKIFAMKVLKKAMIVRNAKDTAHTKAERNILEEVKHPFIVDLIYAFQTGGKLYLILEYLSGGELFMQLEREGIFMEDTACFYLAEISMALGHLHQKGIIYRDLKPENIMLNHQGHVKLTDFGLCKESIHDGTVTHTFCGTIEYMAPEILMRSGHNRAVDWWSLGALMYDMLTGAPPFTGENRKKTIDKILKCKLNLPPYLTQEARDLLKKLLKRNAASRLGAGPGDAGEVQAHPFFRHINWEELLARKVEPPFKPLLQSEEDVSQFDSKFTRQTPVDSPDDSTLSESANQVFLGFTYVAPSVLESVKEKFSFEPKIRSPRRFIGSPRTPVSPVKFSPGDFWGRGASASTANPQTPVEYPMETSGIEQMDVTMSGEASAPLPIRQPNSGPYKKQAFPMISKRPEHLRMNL

[33] = test system: Serine/threonine-protein kinase B-raf (Homo sapiens), P15056 [V600E]
[34] = molecular target: Cyclin-dependent kinase 14 (Homo sapiens) (UniProt O94921)
[35] = molecular target: Kappa-type opioid receptor (Homo sapiens, UniProt P41145); experiment: GPCRScan assay: inhibition of KOR; parameters: radioligand conc. used [nm] 0.6 – 1.2, parental cells stable HEK
Chain of Kappa-type opioid receptor (P41145 whole entry): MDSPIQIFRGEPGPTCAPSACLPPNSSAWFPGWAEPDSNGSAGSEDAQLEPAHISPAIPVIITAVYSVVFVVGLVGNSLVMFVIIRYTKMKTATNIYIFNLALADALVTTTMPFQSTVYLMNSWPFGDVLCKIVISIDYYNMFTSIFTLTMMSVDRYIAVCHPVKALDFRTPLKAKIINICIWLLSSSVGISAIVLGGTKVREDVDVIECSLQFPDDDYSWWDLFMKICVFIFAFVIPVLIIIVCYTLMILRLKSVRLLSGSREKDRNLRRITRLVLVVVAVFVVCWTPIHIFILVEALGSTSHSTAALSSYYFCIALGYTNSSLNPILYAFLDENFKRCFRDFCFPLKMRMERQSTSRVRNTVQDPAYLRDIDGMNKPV

[36] = molecular target: Ephrin type-B receptor 3 (Homo sapiens) (UniProt P54753)
Chain of Ephrin type-B receptor 3 (Homo sapiens) (P54753 whole entry): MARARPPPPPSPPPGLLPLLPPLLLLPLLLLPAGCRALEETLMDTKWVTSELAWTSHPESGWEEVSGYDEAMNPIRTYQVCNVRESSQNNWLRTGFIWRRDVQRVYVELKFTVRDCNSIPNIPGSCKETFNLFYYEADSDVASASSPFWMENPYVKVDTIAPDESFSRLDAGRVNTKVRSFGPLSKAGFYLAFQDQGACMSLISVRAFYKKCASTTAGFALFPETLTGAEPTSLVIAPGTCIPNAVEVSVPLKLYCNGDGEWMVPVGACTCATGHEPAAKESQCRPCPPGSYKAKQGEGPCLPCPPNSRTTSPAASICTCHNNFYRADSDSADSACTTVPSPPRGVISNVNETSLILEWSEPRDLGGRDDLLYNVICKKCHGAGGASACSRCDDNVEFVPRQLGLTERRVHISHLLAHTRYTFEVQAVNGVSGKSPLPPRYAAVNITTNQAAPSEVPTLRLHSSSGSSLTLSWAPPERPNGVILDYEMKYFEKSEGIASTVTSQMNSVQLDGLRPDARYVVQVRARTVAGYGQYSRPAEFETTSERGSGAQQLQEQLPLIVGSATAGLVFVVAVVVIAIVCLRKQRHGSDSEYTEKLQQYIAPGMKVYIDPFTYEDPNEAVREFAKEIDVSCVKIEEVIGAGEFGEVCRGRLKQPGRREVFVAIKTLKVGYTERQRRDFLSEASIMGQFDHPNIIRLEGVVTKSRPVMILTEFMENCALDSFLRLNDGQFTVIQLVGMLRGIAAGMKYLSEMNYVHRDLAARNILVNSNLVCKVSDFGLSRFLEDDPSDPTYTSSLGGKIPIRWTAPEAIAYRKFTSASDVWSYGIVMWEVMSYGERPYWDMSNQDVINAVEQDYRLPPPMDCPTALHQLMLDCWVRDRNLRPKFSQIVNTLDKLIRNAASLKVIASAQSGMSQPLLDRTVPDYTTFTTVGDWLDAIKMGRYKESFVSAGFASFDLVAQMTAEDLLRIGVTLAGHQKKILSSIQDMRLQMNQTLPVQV

[37] = molecular target: MAP kinase-interacting serine/threonine-protein kinase 1 (Homo sapiens) (UniProt Q9BUB5)
Chain of MAP kinase-interacting serine/threonine-protein kinase 1 (Homo sapiens) (Q9BUB5 whole entry, looked up): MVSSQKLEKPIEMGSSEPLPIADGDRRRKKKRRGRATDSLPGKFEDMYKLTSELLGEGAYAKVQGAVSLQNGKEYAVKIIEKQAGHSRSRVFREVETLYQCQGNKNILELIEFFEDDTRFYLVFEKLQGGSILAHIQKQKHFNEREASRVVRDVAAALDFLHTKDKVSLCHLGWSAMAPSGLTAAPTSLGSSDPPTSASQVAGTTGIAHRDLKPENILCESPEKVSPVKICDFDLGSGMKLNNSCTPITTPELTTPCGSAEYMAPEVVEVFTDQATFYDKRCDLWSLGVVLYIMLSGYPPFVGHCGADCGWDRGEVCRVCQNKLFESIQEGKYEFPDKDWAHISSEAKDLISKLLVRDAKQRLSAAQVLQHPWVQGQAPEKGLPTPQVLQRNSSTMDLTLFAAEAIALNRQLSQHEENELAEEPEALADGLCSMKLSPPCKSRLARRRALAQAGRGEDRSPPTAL

[38] = molecular target: Mitogen-activated protein kinase 8 (Homo sapiens) (UniProt P45983)
[39] = molecular target: Ribosomal protein S6 kinase alpha-1 (Homo sapiens) (UniProt Q15418)
Chain of Ribosomal protein S6 kinase alpha-1 (Homo sapiens) (Q15418 whole entry): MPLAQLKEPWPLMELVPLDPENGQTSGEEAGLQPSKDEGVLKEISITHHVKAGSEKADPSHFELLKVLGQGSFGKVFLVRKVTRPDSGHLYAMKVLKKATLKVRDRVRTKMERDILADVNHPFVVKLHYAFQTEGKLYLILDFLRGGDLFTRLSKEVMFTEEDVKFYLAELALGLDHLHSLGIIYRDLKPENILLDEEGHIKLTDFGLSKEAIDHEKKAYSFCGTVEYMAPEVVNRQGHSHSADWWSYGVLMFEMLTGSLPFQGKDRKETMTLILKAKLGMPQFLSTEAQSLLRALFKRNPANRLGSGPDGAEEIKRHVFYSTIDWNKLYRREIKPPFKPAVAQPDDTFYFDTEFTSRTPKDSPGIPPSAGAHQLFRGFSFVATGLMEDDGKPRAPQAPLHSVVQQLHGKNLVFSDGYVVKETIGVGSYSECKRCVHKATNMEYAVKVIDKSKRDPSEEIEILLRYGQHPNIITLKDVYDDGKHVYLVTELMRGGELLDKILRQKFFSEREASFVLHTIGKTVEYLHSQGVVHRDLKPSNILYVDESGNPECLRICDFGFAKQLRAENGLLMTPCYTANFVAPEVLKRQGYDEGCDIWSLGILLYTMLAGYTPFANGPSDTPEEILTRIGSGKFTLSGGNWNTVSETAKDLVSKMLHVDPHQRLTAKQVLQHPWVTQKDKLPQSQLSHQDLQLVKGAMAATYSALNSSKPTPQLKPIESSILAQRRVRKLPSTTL

[40] = molecular target: Protein kinase C epsilon type (Homo sapiens) (UniProt Q02156)
[41] = molecular target: Protein kinase C iota type (Homo sapiens) (UniProt P41743)
[42] = molecular target: 5'-AMP-activated protein kinase catalytic subunit alpha-1 (Homo sapiens) (UniProt Q13131)
[43] = molecular target: Mitogen-activated protein kinase kinase kinase 11 (Homo sapiens) (UniProt Q16584)
[44] = molecular target: Casein kinase I isoform gamma-2 (Homo sapiens) (UniProt P78368)
Chain of Casein kinase I isoform gamma-2 (Homo sapiens) (P78368 whole entry, looked up, canonical isoform): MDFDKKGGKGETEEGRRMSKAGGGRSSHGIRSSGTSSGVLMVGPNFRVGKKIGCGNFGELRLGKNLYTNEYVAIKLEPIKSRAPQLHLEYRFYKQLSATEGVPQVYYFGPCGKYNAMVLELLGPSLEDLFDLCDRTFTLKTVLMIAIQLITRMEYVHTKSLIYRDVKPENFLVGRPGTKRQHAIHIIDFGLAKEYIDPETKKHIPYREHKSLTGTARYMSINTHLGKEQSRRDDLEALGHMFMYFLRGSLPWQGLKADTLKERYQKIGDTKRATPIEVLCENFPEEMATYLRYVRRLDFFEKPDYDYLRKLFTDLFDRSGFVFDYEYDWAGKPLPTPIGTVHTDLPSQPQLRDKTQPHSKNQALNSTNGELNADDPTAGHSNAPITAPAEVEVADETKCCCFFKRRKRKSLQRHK

[45] = molecular target: Atypical kinase COQ8B, mitochondrial (Homo sapiens) (UniProt Q96D53)
[46] = Compound concentration 1000.0 nM
[47] = Compound concentration 100.0 nM

`Cc1cc(NC(=O)c2cccc(S(F)(F)(F)(F)F)c2)cc(-n2ccn3nc(-c4cccnc4)cc23)c1` [BAY-309] was tested. Which residual activity [1, 46] did it give?
The residual activity was 62.1%.

And the residual activity [2, 46]?
Its residual activity is 100%.

And the residual activity [3, 46]?
The residual activity was 100%.

And the residual activity [4, 46]?
Its residual activity is 100%.

And the Ki ([5]; read-out: Ki)?
The Ki was 796 nM.

What about the Ki ([5]; read-out: pKi (converted)) of the same compound?
The Ki was 789 nM.

What about the inhibition [6] of the same compound?
The inhibition was 16.3%.

And the residual activity [7, 46]?
Its residual activity is 100%.

And the residual activity [8, 46]?
Its residual activity is 91.2%.

And the residual activity [9, 46]?
Its residual activity is 89.7%.

What about the residual activity [10, 46] of the same compound?
The residual activity was 100%.

And the residual activity [11, 46]?
The residual activity was 89%.

And the inhibition [12]?
Its inhibition is -8.99%.

And the residual activity [13, 46]?
The residual activity was 100%.

What about the residual activity [14, 46] of the same compound?
Its residual activity is 64.9%.

What about the residual activity [15, 46] of the same compound?
Its residual activity is 72.9%.

What about the residual activity [16, 46] of the same compound?
Its residual activity is 100%.

What about the residual activity [17, 46] of the same compound?
Its residual activity is 100%.

And the residual activity [18, 46]?
Its residual activity is 64.2%.

And the residual activity [19, 46]?
Its residual activity is 86.9%.

And the residual activity [20, 46]?
Its residual activity is 74.5%.

What about the residual activity [21, 46] of the same compound?
The residual activity was 100%.

And the inhibition [22]?
Its inhibition is 27.7%.

And the residual activity [23, 46]?
Its residual activity is 100%.

What about the inhibition [24] of the same compound?
Its inhibition is 14.6%.

What about the residual activity [25, 46] of the same compound?
Its residual activity is 83.8%.

And the residual activity [26, 46]?
Its residual activity is 100%.

And the residual activity [27, 46]?
Its residual activity is 76%.

And the residual activity [28, 46]?
The residual activity was 100%.

And the residual activity [29, 46]?
The residual activity was 100%.

And the residual activity [30, 46]?
The residual activity was 53.9%.

What about the residual activity [31, 46] of the same compound?
The residual activity was 72.7%.

And the residual activity [32, 46]?
Its residual activity is 66.2%.

And the residual activity [33, 46]?
The residual activity was 24.4%.

And the residual activity [34, 46]?
The residual activity was 93.8%.

What about the Ki ([35]; read-out: Ki) of the same compound?
Its Ki is 10000 nM.

What about the residual activity [36, 46] of the same compound?
Its residual activity is 100%.

What about the residual activity [37, 46] of the same compound?
The residual activity was 100%.

And the residual activity [38, 46]?
Its residual activity is 55.9%.

What about the residual activity [39, 46] of the same compound?
The residual activity was 91.7%.

And the residual activity [40, 46]?
Its residual activity is 91.2%.

What about the residual activity [41, 46] of the same compound?
The residual activity was 80.4%.

And the residual activity [42, 46]?
The residual activity was 100%.

And the residual activity [43, 46]?
The residual activity was 100%.

What about the residual activity [44, 46] of the same compound?
Its residual activity is 95.4%.

What about the residual activity [45, 46] of the same compound?
The residual activity was 100%.

Which residual activity [1, 47] does the source give for `Cc1cc(C)c(-n2ccn3nc(-c4cccnc4)cc23)cc1NC(=O)c1cc(C#N)cc(S(F)(F)(F)(F)F)c1` [BAY-826] here?
The residual activity was 81.9%.

And the residual activity [2, 47]?
The residual activity was 85.8%.

What about the residual activity [3, 47] of the same compound?
Its residual activity is 60.1%.

What about the residual activity [4, 47] of the same compound?
The residual activity was 99.6%.

What about the Ki ([5]; read-out: Ki) of the same compound?
The Ki was 984 nM.

And the Ki ([5]; read-out: pKi (converted))?
Its Ki is 955 nM.

What about the inhibition [6] of the same compound?
The inhibition was 10.5%.

And the residual activity [7, 47]?
The residual activity was 73.2%.

And the residual activity [8, 47]?
Its residual activity is 92%.

And the residual activity [9, 47]?
Its residual activity is 70.8%.

And the residual activity [10, 47]?
Its residual activity is 92.6%.

And the residual activity [11, 47]?
Its residual activity is 65.1%.

What about the inhibition [12] of the same compound?
The inhibition was -0.87%.

What about the residual activity [13, 47] of the same compound?
The residual activity was 100%.

What about the residual activity [14, 47] of the same compound?
The residual activity was 100%.

What about the residual activity [15, 47] of the same compound?
The residual activity was 63.3%.

And the residual activity [16, 47]?
The residual activity was 70.7%.

And the residual activity [17, 47]?
Its residual activity is 99.6%.

What about the residual activity [18, 47] of the same compound?
Its residual activity is 74.1%.

And the residual activity [19, 47]?
The residual activity was 67.4%.

And the residual activity [20, 47]?
The residual activity was 91.8%.

And the residual activity [21, 47]?
The residual activity was 82.7%.

What about the inhibition [22] of the same compound?
The inhibition was -2.46%.

What about the residual activity [23, 47] of the same compound?
The residual activity was 84.1%.

What about the inhibition [24] of the same compound?
The inhibition was 14.9%.

What about the residual activity [25, 47] of the same compound?
The residual activity was 99.3%.

And the residual activity [26, 47]?
Its residual activity is 82.5%.

What about the residual activity [27, 47] of the same compound?
Its residual activity is 74.7%.

And the residual activity [28, 47]?
Its residual activity is 95%.

What about the residual activity [29, 47] of the same compound?
Its residual activity is 99.5%.

What about the residual activity [30, 47] of the same compound?
Its residual activity is 64.3%.

And the residual activity [31, 47]?
Its residual activity is 96.4%.

What about the residual activity [32, 47] of the same compound?
Its residual activity is 93%.

What about the residual activity [33, 47] of the same compound?
The residual activity was 100%.

And the residual activity [34, 47]?
The residual activity was 100%.

And the Ki ([35]; read-out: Ki)?
The Ki was 125 nM.

What about the Ki ([35]; read-out: pKi (converted)) of the same compound?
The Ki was 112 nM.

What about the residual activity [36, 47] of the same compound?
Its residual activity is 100%.

What about the residual activity [37, 47] of the same compound?
Its residual activity is 83.8%.

What about the residual activity [38, 47] of the same compound?
The residual activity was 76.8%.

And the residual activity [39, 47]?
The residual activity was 97%.

And the residual activity [40, 47]?
The residual activity was 100%.

What about the residual activity [41, 47] of the same compound?
The residual activity was 100%.

What about the residual activity [42, 47] of the same compound?
Its residual activity is 77%.

What about the residual activity [43, 47] of the same compound?
Its residual activity is 100%.

What about the residual activity [44, 47] of the same compound?
Its residual activity is 77.6%.

What about the residual activity [45, 47] of the same compound?
The residual activity was 93.2%.
